Laboratory results: patent US8846704B2, “Thiopyrimidine-based compounds and uses thereof” (YM Biosciences Austraila Pty Ltd, priority 2007, dated 2014)

Columns and labels:
Format in all cases: biochemical
Flt 1(h) = target: T1, Flt 1(h) (Homo sapiens, UniProt P17948); test: Upstate KinaseProfiler enzyme assay, Flt 1; settings: 500 nM compound; read-out: Percent inhibition at 500 nM Flt 1(h)
T1 construct: purchased Upstate Biotechnology (Dundee, UK), KinaseProfiler service
Description: (§1) Further enzyme assays were conducted at Upstate Biotechnology (Dundee, UK) in the KinaseProfiler™ Assay system.
(§2) The general protocol is as follows. All kinases are pre-diluted to a 10× working concentration prior to addition into the assay. The composition of the dilution buffer for the kinases is 20 mM MOPS pH 7.0, 1 mM EDTA, 0.1% β-mercaptoethanol, 0.01% Brij-35, 5% glycerol, 1 mg/ml BSA. All substrates are dissolved and diluted to working stocks in de-ionised water.

BTK(h) = target: T2, BTK(h) (Homo sapiens, UniProt Q06187); test: Upstate KinaseProfiler enzyme assay, BTK; settings: 500 nM compound; read-out: Percent inhibition at 500 nM BTK(h)
T2 construct: purchased Upstate Biotechnology (Dundee, UK), KinaseProfiler service
T2 sequence (Q06187 whole entry): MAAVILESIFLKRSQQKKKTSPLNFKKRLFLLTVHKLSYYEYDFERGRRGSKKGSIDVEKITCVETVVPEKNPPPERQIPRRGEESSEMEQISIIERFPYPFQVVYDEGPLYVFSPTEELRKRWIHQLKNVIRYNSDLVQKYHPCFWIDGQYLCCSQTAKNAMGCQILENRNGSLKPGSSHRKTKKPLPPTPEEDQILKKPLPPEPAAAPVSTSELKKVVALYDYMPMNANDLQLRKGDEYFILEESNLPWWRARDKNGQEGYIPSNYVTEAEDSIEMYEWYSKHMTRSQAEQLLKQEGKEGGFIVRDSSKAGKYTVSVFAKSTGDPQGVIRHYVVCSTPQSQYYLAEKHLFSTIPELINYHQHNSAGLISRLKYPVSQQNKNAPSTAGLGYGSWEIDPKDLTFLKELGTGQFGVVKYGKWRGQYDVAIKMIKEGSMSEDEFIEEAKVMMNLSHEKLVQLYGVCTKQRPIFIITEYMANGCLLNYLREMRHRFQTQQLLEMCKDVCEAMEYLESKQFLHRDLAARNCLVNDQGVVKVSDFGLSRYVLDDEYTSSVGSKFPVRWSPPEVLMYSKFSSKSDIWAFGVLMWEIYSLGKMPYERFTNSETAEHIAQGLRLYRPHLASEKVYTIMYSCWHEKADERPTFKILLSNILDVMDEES
How it was run: (§3)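 Substrates are dissolved and diluted to working stocks in de-ionised water. Enzymes go into the assay from 10× working dilutions prepared in pH 7.0 MOPS buffer (20 mM) containing BSA 1 mg/ml, glycerol 5%, Brij-35 0.01%, β-mercaptoethanol 0.1% and EDTA 1 mM.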

Bmx(h) = target: T3, Bmx(h) (Homo sapiens, UniProt P51813); test: Upstate KinaseProfiler enzyme assay, Bmx; settings: 500 nM compound; read-out: Percent inhibition at 500 nM Bmx(h)
T3 construct: purchased Upstate Biotechnology (Dundee, UK), KinaseProfiler service
T3 sequence (P51813 1-675): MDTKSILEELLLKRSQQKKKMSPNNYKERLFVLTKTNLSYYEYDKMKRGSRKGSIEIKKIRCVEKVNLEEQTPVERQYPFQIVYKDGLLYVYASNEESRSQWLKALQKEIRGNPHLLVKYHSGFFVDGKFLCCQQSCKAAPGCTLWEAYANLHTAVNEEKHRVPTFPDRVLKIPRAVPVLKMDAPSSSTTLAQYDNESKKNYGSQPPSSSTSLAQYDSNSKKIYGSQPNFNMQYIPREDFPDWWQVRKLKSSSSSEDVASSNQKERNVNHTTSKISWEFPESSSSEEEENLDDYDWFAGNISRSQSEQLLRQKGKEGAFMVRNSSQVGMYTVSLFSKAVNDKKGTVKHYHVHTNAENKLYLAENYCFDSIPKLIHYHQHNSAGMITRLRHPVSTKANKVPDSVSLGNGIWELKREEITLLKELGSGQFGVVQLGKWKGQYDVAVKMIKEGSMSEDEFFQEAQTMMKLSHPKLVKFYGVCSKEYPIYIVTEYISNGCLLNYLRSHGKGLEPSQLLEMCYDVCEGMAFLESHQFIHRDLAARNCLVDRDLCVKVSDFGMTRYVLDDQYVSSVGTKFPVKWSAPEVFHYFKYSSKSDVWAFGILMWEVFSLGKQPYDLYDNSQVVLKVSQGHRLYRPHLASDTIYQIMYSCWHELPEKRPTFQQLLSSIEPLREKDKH
How it was run: as §3

Blk(m) = target: T4, Blk(m) (Mus musculus, UniProt P16277); test: Upstate KinaseProfiler enzyme assay, Blk; settings: 500 nM compound; read-out: Percent inhibition at 500 nM Blk(m)
T4 construct: purchased Upstate Biotechnology (Dundee, UK), KinaseProfiler service
T4 sequence (P16277 whole entry): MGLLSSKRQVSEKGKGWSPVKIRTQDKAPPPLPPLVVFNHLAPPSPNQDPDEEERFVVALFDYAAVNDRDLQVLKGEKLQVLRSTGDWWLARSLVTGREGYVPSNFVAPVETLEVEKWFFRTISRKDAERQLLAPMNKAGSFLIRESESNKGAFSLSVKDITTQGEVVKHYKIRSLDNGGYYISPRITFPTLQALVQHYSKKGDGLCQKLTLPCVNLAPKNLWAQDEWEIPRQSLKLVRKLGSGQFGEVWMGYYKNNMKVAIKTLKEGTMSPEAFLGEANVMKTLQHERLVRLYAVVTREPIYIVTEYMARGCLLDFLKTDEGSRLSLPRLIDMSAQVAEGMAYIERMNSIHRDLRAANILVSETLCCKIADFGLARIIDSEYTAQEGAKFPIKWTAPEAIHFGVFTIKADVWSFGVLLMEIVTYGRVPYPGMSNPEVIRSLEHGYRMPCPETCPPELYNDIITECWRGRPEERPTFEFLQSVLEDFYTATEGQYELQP
How it was run: as §3

Flt 4(h) = target: T5, Flt 4(h) (Homo sapiens, UniProt P35916); test: Upstate KinaseProfiler enzyme assay, Flt 4; settings: 500 nM compound; read-out: Percent inhibition at 500 nM Flt 4(h)
T5 construct: purchased Upstate Biotechnology (Dundee, UK), KinaseProfiler service
T5 sequence (P35916 25-1363): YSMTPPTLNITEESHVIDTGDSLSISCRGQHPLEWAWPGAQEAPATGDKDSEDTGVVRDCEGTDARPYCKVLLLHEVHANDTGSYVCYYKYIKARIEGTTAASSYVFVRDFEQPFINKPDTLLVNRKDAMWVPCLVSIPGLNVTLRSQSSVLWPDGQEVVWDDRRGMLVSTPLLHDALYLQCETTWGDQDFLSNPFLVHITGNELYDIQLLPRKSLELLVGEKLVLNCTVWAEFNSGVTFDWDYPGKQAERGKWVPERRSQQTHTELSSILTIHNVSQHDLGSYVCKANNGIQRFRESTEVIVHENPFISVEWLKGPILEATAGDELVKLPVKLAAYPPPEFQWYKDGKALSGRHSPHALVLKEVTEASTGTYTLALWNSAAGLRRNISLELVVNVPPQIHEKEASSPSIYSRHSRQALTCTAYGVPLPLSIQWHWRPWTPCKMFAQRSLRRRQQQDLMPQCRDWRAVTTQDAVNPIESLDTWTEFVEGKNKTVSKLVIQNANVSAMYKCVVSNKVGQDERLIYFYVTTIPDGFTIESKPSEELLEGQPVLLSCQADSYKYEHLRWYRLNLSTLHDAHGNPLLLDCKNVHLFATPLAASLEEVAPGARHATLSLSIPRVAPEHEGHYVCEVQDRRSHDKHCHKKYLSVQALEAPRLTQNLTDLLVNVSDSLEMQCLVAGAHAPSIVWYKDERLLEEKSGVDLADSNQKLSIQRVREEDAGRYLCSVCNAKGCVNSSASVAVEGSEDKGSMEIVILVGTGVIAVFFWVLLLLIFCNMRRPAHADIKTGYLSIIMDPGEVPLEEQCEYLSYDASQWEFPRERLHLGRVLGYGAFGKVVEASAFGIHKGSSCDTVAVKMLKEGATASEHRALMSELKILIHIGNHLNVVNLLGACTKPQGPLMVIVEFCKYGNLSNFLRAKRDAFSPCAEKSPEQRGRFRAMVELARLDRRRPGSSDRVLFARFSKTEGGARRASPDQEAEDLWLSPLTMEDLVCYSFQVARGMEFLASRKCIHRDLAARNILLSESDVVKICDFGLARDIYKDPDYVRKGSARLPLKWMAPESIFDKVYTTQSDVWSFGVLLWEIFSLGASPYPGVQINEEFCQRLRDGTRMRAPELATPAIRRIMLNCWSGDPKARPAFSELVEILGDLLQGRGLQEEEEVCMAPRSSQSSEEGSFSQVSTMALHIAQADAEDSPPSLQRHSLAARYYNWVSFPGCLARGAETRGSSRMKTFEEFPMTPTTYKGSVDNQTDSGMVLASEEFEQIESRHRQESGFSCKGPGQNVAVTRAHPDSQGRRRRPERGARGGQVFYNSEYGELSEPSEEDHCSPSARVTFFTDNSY
Description: as §1, §2

KDR(h) = target: T6, KDR(h) (Homo sapiens, UniProt P35968); test: Upstate KinaseProfiler enzyme assay, KDR; settings: 500 nM compound; read-out: Percent inhibition at 500 nM KDR(h)
T6 construct: purchased Upstate Biotechnology (Dundee, UK), KinaseProfiler service
How it was run: as §3

T1 sequence (P17948 27-1338): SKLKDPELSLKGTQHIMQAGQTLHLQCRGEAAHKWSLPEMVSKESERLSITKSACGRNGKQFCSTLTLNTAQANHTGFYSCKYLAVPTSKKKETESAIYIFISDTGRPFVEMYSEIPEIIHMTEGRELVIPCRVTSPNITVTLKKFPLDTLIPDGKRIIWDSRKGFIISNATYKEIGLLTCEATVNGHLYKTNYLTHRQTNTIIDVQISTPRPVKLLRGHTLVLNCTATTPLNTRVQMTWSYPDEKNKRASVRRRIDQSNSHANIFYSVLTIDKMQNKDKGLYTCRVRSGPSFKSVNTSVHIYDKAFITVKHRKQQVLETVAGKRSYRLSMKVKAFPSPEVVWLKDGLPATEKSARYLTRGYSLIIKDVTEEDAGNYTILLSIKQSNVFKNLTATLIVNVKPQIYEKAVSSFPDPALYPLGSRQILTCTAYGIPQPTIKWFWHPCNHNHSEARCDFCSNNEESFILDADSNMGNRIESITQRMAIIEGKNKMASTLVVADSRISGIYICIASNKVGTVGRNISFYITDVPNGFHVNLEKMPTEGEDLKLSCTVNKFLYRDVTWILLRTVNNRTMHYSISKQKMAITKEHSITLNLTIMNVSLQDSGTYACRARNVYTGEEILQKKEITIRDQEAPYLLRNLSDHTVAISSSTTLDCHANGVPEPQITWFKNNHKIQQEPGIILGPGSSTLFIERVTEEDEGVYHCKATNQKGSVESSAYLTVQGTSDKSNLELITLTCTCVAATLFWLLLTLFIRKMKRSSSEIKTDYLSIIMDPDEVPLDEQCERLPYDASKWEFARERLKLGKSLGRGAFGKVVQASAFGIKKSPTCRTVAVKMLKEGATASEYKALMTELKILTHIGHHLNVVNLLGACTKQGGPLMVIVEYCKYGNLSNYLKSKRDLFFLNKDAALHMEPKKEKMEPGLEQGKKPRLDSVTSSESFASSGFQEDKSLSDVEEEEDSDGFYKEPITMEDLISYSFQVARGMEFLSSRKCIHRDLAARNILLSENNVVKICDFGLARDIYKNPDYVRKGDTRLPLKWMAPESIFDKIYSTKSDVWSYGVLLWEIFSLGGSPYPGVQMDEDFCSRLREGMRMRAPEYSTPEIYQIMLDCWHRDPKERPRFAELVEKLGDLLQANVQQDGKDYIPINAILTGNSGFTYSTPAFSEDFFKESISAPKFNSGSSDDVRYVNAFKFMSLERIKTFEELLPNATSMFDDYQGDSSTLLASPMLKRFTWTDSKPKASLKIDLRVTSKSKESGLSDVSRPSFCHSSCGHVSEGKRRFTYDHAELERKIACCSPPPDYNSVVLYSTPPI

SMILES	inhibition at 0.5 µM (Flt 1(h)) [%]	inhibition at 0.5 µM (BTK(h)) [%]	inhibition at 0.5 µM (Bmx(h)) [%]	inhibition at 0.5 µM (Blk(m)) [%]	inhibition at 0.5 µM (Flt 4(h)) [%]	inhibition at 0.5 µM (KDR(h)) [%]
C=CC(=O)Nc1ccc(Sc2nc(Nc3cccc(N4CCN(C)CC4)c3)ncc2C)cc1 [Compound 243, N-(4-(5-methyl-2-(3-(4-methylpiperazin-1-yl)phenylao)pyrimidin-4-ylthio)phenyl)acrylamide]	100	97	96	99	100	97
C=CC(=O)Nc1ccc(Sc2nc(Nc3ccc(C4CCN(C)CC4)cc3)ncc2C)cc1 [Compound 246, N-(4-(5-methyl-2-(4-(1-methylpiperidin-4-yl)phenylao)pyrimidin-4-ylthio)phenyl)acrylamide]	100	97	98	97	100	93
C=CC(=O)Nc1ccc(Sc2nc(Nc3ccc(N4CCOCC4)c(OC)c3)ncc2C)cc1 [Compound 248, N-(4-(2-(3-methoxy-4-morpholinophenylao)-5-methylpyrimidin-4-ylthio)phenyl)acrylamide]	95	80	91	92	100	95
C=CC(=O)Nc1ccc(Sc2nc(Nc3cccc(N4CCOCC4)c3)ncc2F)cc1 [Compound 267, N-(4-(5-fluoro-2-(3-morpholinophenylao)pyrimidin-4-ylthio)phenyl)acrylamide]	100	94	89	96	100	94
C=CC(=O)Nc1ccc(Sc2nc(Nc3cccc(CO)c3)ncc2C)cc1 [Compound 280, N-(4-(2-(3-(hydroxymethyl)phenylao)-5-methylpyrimidin-4-ylthio)phenyl)acrylamide]	100	97	98	99	100	97
C=CC(=O)Nc1ccc(Sc2nc(Nc3ccc(NS(C)(=O)=O)cc3)ncc2C)cc1 [Compound 285, N-(4-(5-methyl-2-(4-(methylsulfonamido)phenylao)pyrimidin-4-ylthio)phenyl)acrylamide]	95	91	98	97	98	94
C=CC(=O)Nc1ccc(Sc2nc(Nc3ccc(N4CCC(CO)CC4)cc3)ncc2C)cc1 [Compound 286, N-(4-(2-(4-(4-(hydroxymethyl)piperidin-1-yl)phenylao)-5-methylpyrimidin-4-ylthio)phenyl)acrylamide]	98	74	95	88	100	94
C=CC(=O)Nc1ccc(Sc2nc(Nc3cccc(NS(C)(=O)=O)c3)ncc2C)cc1 [Compound 288, N-(4-(5-methyl-2-(3-(methylsulfonamido)phenylao)pyrimidin-4-ylthio)phenyl)acrylamide]	100	98	100	99	100	94
C=CC(=O)Nc1ccc(Sc2nc(Nc3ccc(OCCN4CCOCC4)cc3)ncc2C)cc1 [Compound 290, N-(4-(5-methyl-2-(4-(2-morpholinoethoxy)phenylao)pyrimidin-4-ylthio)phenyl)acrylamide]	100	94	97	97	100	95
C=CC(=O)Nc1ccc(Sc2nc(Nc3ccc(OCCCN(CC)CC)cc3)ncc2C)cc1 [Compound 291, N-(4-(2-(4-(3-(diethylao)propoxy)phenylao)-5-methylpyrimidin-4-ylthio)phenyl)acrylamide]	100	95	99	99	100	96
C=CC(=O)Nc1ccc(Sc2nc(Nc3ccc(OC)c(NS(C)(=O)=O)c3)ncc2C)cc1 [Compound 293, N-(4-(2-(4-methoxy-3-(methylsulfonamido)phenylao)-5-methylpyrimidin-4-ylthio)phenyl)acrylamide]	79	55	79	30	100	95
O=C(/C=C/Cl)Nc1cccc(Sc2ccnc(Nc3ccc(N4CCOCC4)cc3)n2)c1 [Compound 340, (E)-3-chloro-N-(3-(2-(4-morpholinophenylao)pyrimidin-4-ylthio)phenyl)acrylamide]	100	97	92	99	95	94
C=CC(=O)Nc1ccc(Sc2ccnc(Nc3ccc(S(N)(=O)=O)c(OC)c3)n2)cc1 [Compound 374, N-(4-(2-(3-methoxy-4-sulfamoylphenylao)pyrimidin-4-ylthio)phenyl)acrylamide]	100	96	91	96	100	96
